Laboratory results taken from patent publication US7151116B2, “Apoptolidin analogs and derivatives for inducing apoptosis in transformed cells” (Board of Trustees of The Leland Stanford Junior University, priority 2003, dated 2006).
Like-named read-outs stand apart in the source and are kept apart here.

Tests used:
normal fibroblasts = conditions: Seto et al., 1997; cited from earlier work
[1] = system: untransformed rat glial cells; conditions: Seto et al., 1997; cited from earlier work
[2] = system: 60 human cancer cell lines (NCI 60); conditions: of 37,000 compounds tested by the National Cancer Institute; cited from earlier work
[3] = system: rat glial cells transformed with the adenovirus E1A or E1A/E1B19K/E1B54K oncogenes; conditions: Seto et al., 1997; cited from earlier work
[4] = target: T1, mitochondrial F0F1-ATPase (Saccharomyces cerevisiae, UniProt P00830+P07251+P38077); experiment: F0F1-ATPase inhibition assay in isolated yeast mitochondria (20 minute cell-free assay); type: biochemical; conditions: for F0F1-ATPase inhibitory activity (in words): comparison
T1 construct: endogenous in cells; host or cells: isolated yeast mitochondria (cell-free preparation)
Description: The ability of isoapoptolidin and the apoptolidin derivatives described in Examples 3 and 4 to inhibit F0F1-ATPase in isolated yeast mitochondria was studied. The F0F1-ATPase assay is a rapid 20 minute cell-free assay.
The functionalized macrolide and δ-lactone fragments were assayed for inhibitory activity against mitochondrial F0F1-ATPase.

[5] = Stability of solutions on storage (NMR, HPLC, UV-vis); type: physicochemical; conditions: for conversion in dilute aqueous solution: ambient temperature, HPLC or UV-vis
Description: To study the kinetic parameters of isoapoptolidin, the conversion between apoptolidin and isoapoptolidin under biological assay and chemical isolation conditions was observed. […] During this time, no conversion to isoapoptolidin is observed, either by NMR or HPLC. […] Given that the conversion between apoptolidin and isoapoptolidin goes in both directions, it is likely that these two compounds are in equilibrium.

[6] = Apoptolidin-isoapoptolidin equilibrium kinetics in PBS at 37° C. (reverse-phase HPLC); type: physicochemical; conditions: solution starting from the labelled isomer (Q(t) = 0 at t = 0: apoptolidin, Q(t) = ∞ at t = 0: isoapoptolidin); for k1: apoptolidin to isoapoptolidin; for k−1: isoapoptolidin to apoptolidin
Description: (§1) To measure the kinetic parameters of apoptolidin and isoapoptolidin, solutions of both compounds in PBS (Dulbecco's phosphate buffered saline) were prepared and incubated at 37° C. in sealed reaction vessels. Periodically, the components present in the solutions were quantified using reverse-phase HPLC. Baseline separation was achieved using a 150×4.6 mm C18/5μ column eluting with a water/acetonitrile gradient from 40% to 90% over 30 min. After normalization for the difference in extinction coefficients (λobs=254 nm), these values were plotted and the rate constants k1 and k−1 were extracted by fitting the data to the integrated rate expression for a simple equilibrium. The kinetic parameters for apoptolidin and isoapoptolidin equilibrium over time in PBS at 37° C. The relative amounts of apoptolidin and isoapoptolidin at various time points are plotted in FIG. 2.

[7] = Stability in the presence of all F0F1-ATPase assay components; type: physicochemical; conditions: up to 24 hours
Description: To test the ability of isoapoptolidin to inhibit F0F1-ATPase activity, solutions of isoapoptolidin and apoptolidin including all assay components were analyzed for isomerization. After 20 minutes at 37° C., less than 12% conversion was detected.
To test the ability of apoptolidin derivatives to inhibit F0F1-ATPase activity, compound 16 from Table 3 was exposed to all of the assay components for up to 24 hours.

Stability in PBS (LC-MS) = type: physicochemical; conditions: conditions that promote apoptolidin/isoapoptolidin isomerization
Description: as §1
This experiment leads to the conclusion that while derivatization of apoptolidin at C-20 blocks isomerization to isoapoptolidin, the resulting derivatives (compounds 18 and 20) undergo other transformations.

[8] = Isomerization in basic CD3OD (LCMS and NMR); type: physicochemical
Description: To prevent ring expansion, the primary alcohol may be efficiently converted to a methyl ether or benzoate ester by way of treatment with Meerwein's salt or benzoyl anhydride followed by deprotection, under this procedure, the following macrocycles resulted, respectively: Compound 23: Q^1=Q^2=Q^3=Q^4=Q^5=Q^7=H; Q^6=R^1=R^2=R^3=R^4=CH3 Compound 24: Q^1=Q^2=Q^3=Q^4=Q^5=Q^7=H; Q^6=[…]; R^1=R^2=R^3=R^4=CH3

For `COC[C@@H](C[C@H]1O[C@@](O)([C@H](O)[C@@H]2C[C@H](OC)[C@@H](O)CC/C=C(C)/C=C/[C@@H](O[C@@H]3O[C@@H](C)[C@H](OC)[C@@H](O)[C@@H]3O)[C@H](C)/C=C(C)/C=C(C)/C=C(\C)C(=O)O2)[C@H](C)[C@@H](O)[C@H]1C)O[C@H]1C[C@](C)(O)[C@@H](O[C@H]2C[C@@H](OC)[C@H](O)[C@@H](C)O2)[C@H](C)O1` [Apoptolidin], the cytotoxic effect (normal fibroblasts) is listed as “no cytotoxic effect”, the cytotoxic effect [1] is listed as “no cytotoxic effect” and the “rank of selectivity among cytotoxic agents” value [2] is listed as “among the top 0.1% most selective cytotoxic agents”. For the same molecule, the induction of apoptosis [3] was “capable of inducing apoptosis”, the IC50 [4] was 700 ± 500 nM and the “conversion in dilute aqueous solution” value [5] was “convert to isoapoptolidin”. For the same molecule, the “stable in solution (no conversion to isoapoptolidin by NMR or HPLC)” value ([5]; −20° C., dissolved in chloroform or methylene chloride) was “up to three months”, the Keq [6] was 0.0616 and the k1 [6] was 0.0656 h⁻¹. The “k−1” value [6] was 0.106 h⁻¹.

`COC[C@@H](C[C@H]1O[C@@](OC)([C@H](O)[C@@H]2C[C@H](OC)[C@@H](O)CC/C=C(C)/C=C/[C@@H](O[C@@H]3O[C@@H](C)[C@H](OC)[C@@H](O)[C@@H]3O)[C@H](C)/C=C(C)/C=C(C)/C=C(\C)C(=O)O2)[C@H](C)[C@@H](O)[C@H]1C)O[C@H]1C[C@](C)(O)[C@@H](O[C@H]2C[C@@H](OC)[C@H](O)[C@@H](C)O2)[C@H](C)O1` [Compound 1] showed an IC50 [4] of 2300 ± 500 nM.

`COC[C@@H](C[C@H]1O[C@@](O)([C@H](O)[C@@H]2C[C@H](OC)[C@@H](O)CC/C=C(C)/C=C/[C@@H](O[C@@H]3O[C@@H](C)[C@H](OC)[C@@H](O)[C@@H]3OC(=O)c3ccccc3)[C@H](C)/C=C(C)/C=C(C)/C=C(\C)C(=O)O2)[C@H](C)[C@@H](O)[C@H]1C)O[C@H]1C[C@](C)(O)[C@@H](O[C@H]2C[C@@H](OC)[C@H](O)[C@@H](C)O2)[C@H](C)O1` [Compound 3] showed an IC50 [4] of 300 ± 500 nM.

With `COC[C@@H](C[C@H]1O[C@@](O)([C@H](O)[C@@H]2C[C@H](OC)[C@@H](O)CC/C=C(C)/C=C/[C@@H](O[C@@H]3O[C@@H](C)[C@H](OC)[C@@H](O)[C@@H]3O)[C@H](C)/C=C(C)/C=C(C)/C=C(\C)C(=O)O2)[C@H](C)[C@@H](OC(C)=O)[C@H]1C)O[C@H]1C[C@](C)(O)[C@@H](O[C@H]2C[C@@H](OC)[C@H](OC(C)=O)[C@@H](C)O2)[C@H](C)O1` [Compound 14] the IC50 [4] was 400 ± 500 nM.

Work on `COC[C@@H](C[C@H]1O[C@@](O)([C@H](O)[C@@H]2C[C@H](OC)[C@@H](O)CC/C=C(C)/C=C/[C@@H](O[C@@H]3O[C@@H](C)[C@H](OC)[C@@H](O)[C@@H]3O)[C@H](C)/C=C(C)/C=C(C)/C=C(\C)C(=O)O2)[C@H](C)[C@@H](O)[C@H]1C)O[C@H]1C[C@](C)(O)[C@@H](O[C@H]2C[C@@H](OC)[C@H](OC(C)=O)[C@@H](C)O2)[C@H](C)O1` [Compound 15] yielded an IC50 [4] of 800 ± 500 nM.

With `COC[C@@H](C[C@H]1O[C@@](O)([C@H](O)[C@@H]2C[C@H](OC)[C@@H](OC(C)=O)CC/C=C(C)/C=C/[C@@H](O[C@@H]3O[C@@H](C)[C@H](OC)[C@@H](O)[C@@H]3O)[C@H](C)/C=C(C)/C=C(C)/C=C(\C)C(=O)O2)[C@H](C)[C@@H](O)[C@H]1C)O[C@H]1C[C@](C)(O)[C@@H](O[C@H]2C[C@@H](OC)[C@H](O)[C@@H](C)O2)[C@H](C)O1` [Compound 16] the “hydrolysis (ESIMS)” value [7] was “no hydrolysis was detected” and the IC50 [4] was 800 ± 500 nM.

In the case of `COC[C@@H](C[C@H]1O[C@@](O)([C@H](O)[C@@H]2C[C@H](OC)[C@@H](O)CC/C=C(C)/C=C/[C@@H](O[C@@H]3O[C@@H](C)[C@H](OC)[C@@H](OC(C)=O)[C@@H]3O)[C@H](C)/C=C(C)/C=C(C)/C=C(\C)C(=O)O2)[C@H](C)[C@@H](O)[C@H]1C)O[C@H]1C[C@](C)(O)[C@@H](O[C@H]2C[C@@H](OC)[C@H](O)[C@@H](C)O2)[C@H](C)O1` [Compound 17], the IC50 [4] is reported as 400 ± 500 nM.

In the case of `COC[C@@H](C[C@H]1O[C@@](O)([C@H](OC(C)=O)[C@@H]2C[C@H](OC)[C@@H](O)CC/C=C(C)/C=C/[C@@H](O[C@@H]3O[C@@H](C)[C@H](OC)[C@@H](O)[C@@H]3O)[C@H](C)/C=C(C)/C=C(C)/C=C(\C)C(=O)O2)[C@H](C)[C@@H](O)[C@H]1C)O[C@H]1C[C@](C)(O)[C@@H](O[C@H]2C[C@@H](OC)[C@H](O)[C@@H](C)O2)[C@H](C)O1` [Compound 18], the “stability in PBS” value (Stability in PBS (LC-MS)) is reported as “unstable under these conditions, producing several new compounds over a five hour period” and the IC50 [4] is reported as 1100 ± 500 nM.

With `COC[C@@H](C[C@H]1O[C@@](O)([C@H](OC)[C@@H]2C[C@H](OC)[C@@H](O)CC/C=C(C)/C=C/[C@@H](O[C@@H]3O[C@@H](C)[C@H](OC)[C@@H](O)[C@@H]3O)[C@H](C)/C=C(C)/C=C(C)/C=C(\C)C(=O)O2)[C@H](C)[C@@H](O)[C@H]1C)O[C@H]1C[C@](C)(O)[C@@H](O[C@H]2C[C@@H](OC)[C@H](O)[C@@H](C)O2)[C@H](C)O1` [Compound 20] the “stability in PBS” value (Stability in PBS (LC-MS)) was “partially convert to a second isomeric compound over a period of several hours” and the IC50 [4] was 2800 ± 500 nM.

For `CO[C@@H]1[C@@H](O)[C@H](O)[C@H](O[C@@H]2/C=C/C(C)=C/CC[C@H](O)[C@@H](OC)C[C@@H](CO)OC(=O)/C(C)=C/C(C)=C/C(C)=C/[C@H]2C)O[C@H]1C` [Compound 22], the “isomerization to ring expanded isomer” value [8] was “slowly isomerized to its ring expanded isomer”, the IC50 ([4]; Table 6, apoptolidin oxidative cleavage products, mitochondrial F0F1-ATPase, read-out: IC50) was 16000 ± 5000 nM and the “F0F1-ATPase inhibitory activity (in words)” value [4] was “potency comparable to isoapoptolidin”.

With `COC[C@@H](C[C@H]1O[C@@](O)([C@@H]2OC(=O)/C(C)=C/C(C)=C/C(C)=C/[C@@H](C)[C@H](O[C@@H]3O[C@@H](C)[C@H](OC)[C@@H](O)[C@@H]3O)/C=C/C(C)=C/CC[C@H](O)[C@@H](OC)C[C@@H]2O)[C@H](C)[C@@H](O)[C@H]1C)O[C@H]1C[C@](C)(O)[C@@H](O[C@H]2C[C@@H](OC)[C@H](O)[C@@H](C)O2)[C@H](C)O1` [Isoapoptolidin] the IC50 [4] was 17000 ± 5000 nM, the “F0F1-ATPase inhibitory activity (in words)” value [4] was “reduced F0F1-ATPase inhibitory activity over apoptolidin” and the “conversion in dilute aqueous solution” value [5] was “convert to apoptolidin”. The “stable as a solution” value ([5]; −20° C., methanol) was “up to six months”, the Keq [6] was 0.638 and the k1 [6] was 0.0626 h⁻¹. The “k−1” value [6] was 0.0982 h⁻¹.
